The values that follow come from ChEMBL document CHEMBL3044683, “Antifeedant activities of tutin and 7-hydroxycoumarin acylation derivatives against Mythimna separata” (2012).

The test system of assay [1] is Mythimna separata. As to the kind of experiment: Antifeedant activity against third-instar larvae of Mythimna separata (Oriental armyworm) at 2 mg/ml applied on wheat leaf after 48 hr by non-choice leaf disk method relative to control. Type of assay: functional.
Assay [2] deals with Mythimna separata. As to the kind of experiment: Antifeedant activity against third-instar larvae of Mythimna separata (Oriental armyworm) at 2 mg/ml applied on wheat leaf after 24 hr by non-choice leaf disk method relative to control. It counts as functional.

For the compound `O=C(Oc1ccc2ccc(=O)oc2c1)c1ccc(Cl)cc1Cl` [7-(2,4-DICHLOROBENZOYLOXY)COUMARIN], the AFI in the assay on Mythimna separata [1] was determined as 18.3%; with Mythimna separata [2], 6.3%.

As to `CS(=O)(=O)Oc1ccc2ccc(=O)oc2c1` [7-METHANESULFONYLOXYCOUMARIN], the AFI in the assay on Mythimna separata [1] is recorded as 53.7%; in the assay on Mythimna separata [2] it was 62.4%.

On to `O=C(Oc1ccc2ccc(=O)oc2c1)c1ccc([N+](=O)[O-])cc1` [7-(4-NITROBENZOYLOXY)COUMARIN], for which the AFI in the assay with Mythimna separata [1] is 10.8%; in the assay on Mythimna separata [2], -7.5%.

For the compound `O=c1ccc2ccc(O)cc2o1` [UMBELLIFERONE], the values for the AFI in the assay with Mythimna separata [1] and with Mythimna separata [2] were 17.3% and 25.4%, respectively.

Take `O=C(Oc1ccc2ccc(=O)oc2c1)c1cc([N+](=O)[O-])cc([N+](=O)[O-])c1` [7-(3,5-DINITROBENZOYLOXY)COUMARIN]: the AFI with Mythimna separata [1] is given as 49.1%; in the assay on Mythimna separata [2], 46.7%.

Consider `COc1ccc(C(=O)Oc2ccc3ccc(=O)oc3c2)cc1` [7-(4-METHOXYBENZOYLOXY)COUMARIN], for which the AFI with Mythimna separata [1] was found to be 35.4%; with Mythimna separata [2], 32.3%.

Turning to `C=C1CC[C@@H]2[C@](C)(CO)[C@H](O)CC[C@@]2(C)[C@@H]1C/C=C1/C(=O)OC[C@H]1O` [ANDROGRAPHOLIDE], the AFI with Mythimna separata [1] turned out to be 9.6%; in the assay on Mythimna separata [2], 26.7%.

In the case of `O=C(Oc1ccc2ccc(=O)oc2c1)c1ccc(Cl)cc1` [7-(4-CHLOROBENZOYLOXY)COUMARIN], the AFI is 17.5% in the assay with Mythimna separata [1] and 9.2% with Mythimna separata [2].

Turning to `C=C(C)[C@H]1[C@H]2OC(=O)[C@@H]1[C@@]1(O)[C@H]3O[C@H]3[C@]3(CO3)[C@]1(C)[C@@H]2O` [TUTIN], the AFI in the assay with Mythimna separata [1] came out at 31.8%; with Mythimna separata [2], 22.7%.

As to `O=C(Oc1ccc2ccc(=O)oc2c1)c1ccc(Cl)nc1` [7-(6-CHLORONICOTINOYLOXY)COUMARIN], the AFI is listed as 37.9% in the assay with Mythimna separata [1] and 45.3% with Mythimna separata [2].

As to `C/C=C(\C)C(=O)O[C@H]1C[C@@H](OC(C)=O)[C@@]2(C(=O)OC)CO[C@H]3[C@@H](O)[C@@](C)([C@]45O[C@@]4(C)[C@@H]4C[C@H]5O[C@@H]5OC=C[C@@]54O)[C@H]4[C@]1(CO[C@]4(O)C(=O)OC)[C@@H]32` [AZADIRACHTIN A], the figures for the AFI in the assay on Mythimna separata [1] and with Mythimna separata [2] were 43.8% and 37.3%, respectively.
